How the values were obtained:
[1] = tested on: diploid fibroblasts, keratinocytes and breast epithelial cells; assay: Cell death in non-transformed control cells; format: cell-based
Twist = Twist expression in U2OS and EJ cells; format: cell-based, human; conditions: 10 μM, 6 and 12 hours
Protocol: (§1) U2OS cells and EJ cells were exposed to piperlongumine (10 μM) and aliquots of the cells were taken at 6 and 12 hours and lysed to determine the level of Twist expression. […] HCT116 cells (p53-wt cells) were exposed to piperlongumine and aliquots of the cells were taken at 6 and 12 hours and lysed to determine the level of CDIP expression. […] U2OS cells (p53-wt cells) and EJ cells (non-functional p53) were exposed to various concentrations of piperlongumine (piper) and aliquots of the cells were lysed to determine the level of survival protein expression.

CDIP [2] = assay: CDIP expression in HCT116 cells; format: cell-based, human; conditions: 5 μM and 10 μM
Protocol: as §1

[3] = tested on: patient-derived breast cancer tumor samples; assay: Histoculture Drug Response Assay (HDRA), breast; format: cell-based, human
From the text: (§2) Piperlongumine (SP2007) was compared to a variety of known anti-cancer agents in a Histoculture Drug Response Assay (HDRA). HDRA is an assay that provides a reliable approach to determine the profile of in vivo chemo-sensitivity in cancer patients. The assay allows for a three-dimensional culture, the testing of patient tumor sensitivity, the evaluation of treatment option for individual patients with solid tumor types and a high correlation to clinical drug sensitivity (Flowers J L et al., Cancer Chemother. Pharmacol. 2003 September 52 (3): 253-261). The assays were performed by Anti-cancer Inc., (San Diego, Calif.). An average of twenty samples was tested for each tumor type.

[4] = tested on: patient-derived colon cancer tumor samples; assay: Histoculture Drug Response Assay (HDRA), colon; format: cell-based, human
From the text: as §2

CDIP [5] = assay: Western blot of CDIP expression in U2OS cells containing wt-p53; format: cell-based, human; conditions: 5 μM and 10 μM
Protocol: Western blot analyses of CDIP expression in human cancer cells containing wt-p53 treated with piperlongumine (SP2007) (5 μM and 10 μM) is shown in FIG. 38. Beta-actin expression was used as a loading control.

Twist and N-cadherin = assay: Histological examination of Twist and N-cadherin in MMTV-PyVT mammary tumors; format: in vivo, mouse; conditions: i.p. total 2.4 mg/kg daily for two weeks
Protocol: A scheme for piperlongumine (SP2007)-mediated repression of Twist expression and its downstream targets that are involved in tumor invasion/metastasis is presented in FIG. 39A. […] U2OS and EJ cells were treated with SP2007 at two concentrations (10 μM and 20 μM) as well as with DMSO as a solvent control. After 20 hours, cell lysates were extracted and western blotting was performed against Twist, N-cadherin and p120 catenin (Zymed and Sigma Aldrich). […] Female MMTV-PyVT mice at 8-9 weeks age were chosen for the studies. When tumor sizes grew to ˜5-6 mm in diameter, SP2007 or DMSO was administered intraperitoneally (I.P., total 2.4 mg/kg of SP2007) daily for two weeks. After two weeks treatment, mice were sacrificed and mammary tumors excised and processed for histological examination.

[6] = tested on: normal human breast epithelial cells; assay: DNA damage markers in normal human breast epithelial cells; format: cell-based; conditions: SP2007 10 μM or 20 μM
From the text: The primary breast epithelial cells obtained from patients undergoing reconstructive plastic surgery.

[7] = tested on: immortalized human breast epithelial cells; assay: DNA damage markers in immortalized human breast epithelial cells; format: cell-based; conditions: taxol 10 nM
From the text: (§3) The conditions and time of exposure are indicated in the legend of the figure.

[8] = tested on: EJ bladder carcinoma and U2OS osteosarcoma cell lines; assay: DNA damage in EJ bladder carcinoma and U2OS osteosarcoma cell lines; format: cell-based, human
From the text: as §3

[9] = tested on: EJ bladder carcinoma cells; assay: Persistent effects after removal of the compound in EJ cells; format: cell-based, human
Protocol: EJ bladder carcinoma cells were treated with SP2007 (P10: 10 μM and P20: 20 μM), taxol (T10: 10 nM and T20: 20 nM) or DMSO vehicle control for either 20 hrs or 3 hrs. For the 20 hrs experiment, the percentages of remaining living cells ware measured on the end of the 20 hrs treatment time point. […] For the 3 hrs experiment, cells were washed 3 times with PBS after treatment with the and incubated for another 6 hrs in growing medium without SP2007, taxol or DMSO.

COc1cc(/C=C/C(=O)N2CCC=CC2=O)cc(OC)c1OC [piperlongumine, N-(3,4,5,-trimethoxycinnamoyl)-Δ^3-piperidine-2-one]
cell death/apoptosis in normal cells [1]: not in normal cells
Twist expression (Twist): inhibits the expression of Twist
CDIP expression (CDIP [2]): induces the expression of CDIP
growth of patient-derived tumor samples [3]: inhibits growth
growth of patient-derived tumor samples [4]: inhibits growth
CDIP expression (CDIP [5]): induces CDIP
N-cadherin expression in mammary tumors (Twist and N-cadherin): inhibits N-cadherin expression
Twist expression in mammary tumors (Twist and N-cadherin): inhibits Twist expression
phosphorylated gamma-H2AX, p53 and p21 [6]: does not affect
phosphorylated gamma-H2AX and p53 [7]: does not result in the induction
DNA damage (phosphorylated gamma-H2AX levels) [8]: results in the induction of DNA damage
killing of cancer cells after removal of the compound ([9]; 3 hrs treatment, washed, another 6 hrs in medium without compound): still able to kill cancer cells
percentage of remaining living cells ([9]; 20 hrs treatment, SP2007 10 and 20 μM, taxol 10 and 20 nM): No difference was observed

— patent US20090312373A1, “METHODS FOR THE TREATMENT OF CANCER USING PIPERLONGUMINE AND PIPERLONGUMINE ANALOGS” (The General Hospital Corporation, priority 2008, published 2009)
